In article PMC8793051 (ACS Omega, 2022):

What was measured:
K-562 = test: NCI-60 SRB growth assay; type: cell-based, human
NCI-H23 = test: NCI-60 SRB growth assay; type: cell-based, human
HT29 = test: NCI-60 SRB growth assay; type: cell-based, human
SN12C = test: NCI-60 SRB growth assay; type: cell-based, human
CAKI-1 = test: NCI-60 SRB growth assay; type: cell-based, human
CCRF-CEM = test: NCI-60 SRB growth assay; type: cell-based, human
NCI-H226 = test: NCI-60 SRB growth assay; type: cell-based, human
SNB-75 = test: NCI-60 SRB growth assay; type: cell-based, human
SK-MEL-2 = test: NCI-60 SRB growth assay; type: cell-based, human; conditions: SK-MEL-2
NCI/ADR-RES = test: NCI-60 SRB growth assay; type: cell-based, human
HOP-62 = test: NCI-60 SRB growth assay; type: cell-based, human; conditions: HOP-62
RXF 393 = test: NCI-60 SRB growth assay; type: cell-based, human
SW-620 = test: NCI-60 SRB growth assay; type: cell-based, human
MALME-3M = test: NCI-60 SRB growth assay; type: cell-based, human
COLO 205 = test: NCI-60 SRB growth assay; type: cell-based, human
HEK = test: MTT cytotoxicity assay; type: cell-based; conditions: Homo sapiens, HEK293, 48 h
MOLT-4 = test: NCI-60 SRB growth assay; type: cell-based, human
MCF7 = test: NCI-60 SRB growth assay; type: cell-based, human
HCC-2998 = test: NCI-60 SRB growth assay; type: cell-based, human
OVCAR-4 = test: NCI-60 SRB growth assay; type: cell-based, human
HS 578T = test: NCI-60 SRB growth assay; type: cell-based, human
T-47D = test: NCI-60 SRB growth assay; type: cell-based, human
PC-3 = test: NCI-60 SRB growth assay; type: cell-based, human
U251 = test: NCI-60 SRB growth assay; type: cell-based, human
SK-MEL-28 = test: NCI-60 SRB growth assay; type: cell-based, human
RPMI-8226 = test: NCI-60 SRB growth assay; type: cell-based, human
LOX IMVI = test: NCI-60 SRB growth assay; type: cell-based, human
UACC-62 = test: NCI-60 SRB growth assay; type: cell-based, human
SF-539 = test: NCI-60 SRB growth assay; type: cell-based, human
UO-31 = test: NCI-60 SRB growth assay; type: cell-based, human
SK-MEL-5 = test: NCI-60 SRB growth assay; type: cell-based, human
BT-549 = test: NCI-60 SRB growth assay; type: cell-based, human; conditions: BT-549
[1] = test system: panel of 60 human cancer cell lines; test: cells; conditions: read-out: GI50 concentration range
MDA-MB-468 = test: NCI-60 SRB growth assay; type: cell-based, human; conditions: MDA-MB-468

SMILES: CCCCN1CCN(c2ccc3[nH]c(-c4ccc5[nH]c(-c6ccc(OCC)c(OCC)c6)nc5c4)nc3c2)CC1 [12a, 5-(4-Butylpiperazin-1-yl)-2-(2-(3,4-diethoxyphenyl)-1H-benzo[d]imidazol-5-yl)-1H-benzo[d]imidazole]
- GI50 (K-562; Homo sapiens, K562): 520 nM
- CC50 (K-562; Homo sapiens, K562, read-out: LC50): 7530 nM
- TGI (K-562; K-562): 2270 nM
- GI50 (NCI-H23; Homo sapiens, NCI-H23): 780 nM
- TGI (NCI-H23; NCI–H23): 2350 nM
- TGI (HT29; HT29): 2970 nM
- GI50 (HT29; Homo sapiens, HT-29): 800 nM
- CC50 (HT29; Homo sapiens, HT-29, read-out: LC50): 100000 nM
- GI50 (SN12C; Homo sapiens, SN12C): 1030 nM
- TGI (SN12C; SN12c): 2610 nM
- TGI (CAKI-1; CAKI-1): 2520 nM
- GI50 (CAKI-1; Homo sapiens, CAKI-1): 1040 nM
- CC50 (CAKI-1; Homo sapiens, CAKI-1, read-out: LC50): 6120 nM
- TGI (CCRF-CEM): 3060 nM
- GI50 (CCRF-CEM; Homo sapiens): 530 nM
- CC50 (CCRF-CEM; Homo sapiens, read-out: LC50): > 100000 nM
- GI50 (NCI-H226; Homo sapiens, NCI-H226): 1290 nM
- CC50 (NCI-H226; Homo sapiens, NCI-H226, read-out: LC50): > 100000 nM
- TGI (NCI-H226; NCI–H226): 3950 nM
- GI50 (SNB-75; Homo sapiens, SNB-75): 650 nM
- CC50 (SNB-75; Homo sapiens, SNB-75, read-out: LC50): 4540 nM
- TGI (SNB-75; SNB-75): 2010 nM
- GI50 (SK-MEL-2; Homo sapiens): 1680 nM
- TGI (SK-MEL-2): 3660 nM
- TGI (NCI/ADR-RES): 100000 nM
- GI50 (NCI/ADR-RES; Homo sapiens): 100000 nM
- CC50 (NCI/ADR-RES; Homo sapiens, read-out: LC50): > 100000 nM
- TGI (HOP-62): 3400 nM
- GI50 (HOP-62; Homo sapiens): 1810 nM
- GI50 (RXF 393; Homo sapiens, RXF 393): 1010 nM
- TGI (RXF 393; RXF393): 2350 nM
- GI50 (SW-620; Homo sapiens, SW-620): 470 nM
- CC50 (SW-620; Homo sapiens, SW-620, read-out: LC50): 5150 nM
- TGI (SW-620; SW620): 1790 nM
- GI50 (MALME-3M; Homo sapiens, Malme-3M): 190 nM
- TGI (MALME-3M; MALME-3M): 1180 nM
- TGI (COLO 205; COLO 205): 1520 nM
- GI50 (COLO 205; Homo sapiens, COLO 205): 230 nM
- CC50 (COLO 205; Homo sapiens, COLO 205, read-out: LC50): 6180 nM
- IC50 (HEK): 2700 nM
- GI50 (MOLT-4; Homo sapiens, MOLT-4): 1220 nM
- CC50 (MOLT-4; Homo sapiens, MOLT-4, read-out: LC50): 31600 nM
- TGI (MOLT-4; MOLT-4): 3860 nM
- TGI (MCF7): 1420 nM
- GI50 (MCF7; Homo sapiens): 190 nM
- TGI (HCC-2998; HCC-2998): 3220 nM
- GI50 (HCC-2998; Homo sapiens, HCC 2998): 1710 nM
- GI50 (OVCAR-4; Homo sapiens, OVCAR-4): 1480 nM
- CC50 (OVCAR-4; Homo sapiens, OVCAR-4, read-out: LC50): 6950 nM
- TGI (OVCAR-4; OVCAR-4): 3210 nM
- TGI (HS 578T; HS578T): 3900 nM
- GI50 (HS 578T; Homo sapiens, Hs-578T): 1540 nM
- GI50 (T-47D; Homo sapiens, T47D): 1360 nM
- CC50 (T-47D; Homo sapiens, T47D, read-out: LC50): > 100000 nM
- TGI (T-47D; T-47D): 7880 nM
- GI50 (PC-3; Homo sapiens, PC-3): 1080 nM
- CC50 (PC-3; Homo sapiens, PC-3, read-out: LC50): 5490 nM
- TGI (PC-3; PC-3): 2440 nM
- GI50 (U251; Homo sapiens, U-251): 1280 nM
- CC50 (U251; Homo sapiens, U-251, read-out: LC50): 5650 nM
- TGI (U251; U251): 2690 nM
- GI50 (SK-MEL-28; Homo sapiens, SK-MEL-28): 1010 nM
- CC50 (SK-MEL-28; Homo sapiens, SK-MEL-28, read-out: LC50): 4860 nM
- TGI (SK-MEL-28; SK-MEL-28): 2220 nM
- GI50 (RPMI-8226; Homo sapiens, RPMI-8226): 430 nM
- CC50 (RPMI-8226; Homo sapiens, RPMI-8226, read-out: LC50): > 100000 nM
- TGI (RPMI-8226; RPMI-8226): 2060 nM
- TGI (LOX IMVI): 1620 nM
- GI50 (LOX IMVI; Homo sapiens): 420 nM
- GI50 (UACC-62; Homo sapiens, UACC-62): 680 nM
- CC50 (UACC-62; Homo sapiens, UACC-62, read-out: LC50): 5420 nM
- TGI (UACC-62; UACC-62): 2180 nM
- GI50 (SF-539; Homo sapiens, SF-539): 1260 nM
- CC50 (SF-539; Homo sapiens, SF-539, read-out: LC50): 5200 nM
- TGI (SF-539; SF-539): 2560 nM
- GI50 (UO-31; Homo sapiens, UO-31): 2000 nM
- CC50 (UO-31; Homo sapiens, UO-31, read-out: LC50): 43800 nM
- TGI (UO-31; UO-31): 5800 nM
- GI50 (SK-MEL-5; Homo sapiens, SK-MEL-5): 1090 nM
- CC50 (SK-MEL-5; Homo sapiens, SK-MEL-5, read-out: LC50): 9220 nM
- TGI (SK-MEL-5; SK-MEL-5): 3160 nM
- TGI (BT-549): 3070 nM
- GI50 (BT-549; Homo sapiens): 1550 nM
- GI50 [1]: 160 to 3600 nM
- GI50 (MDA-MB-468; Homo sapiens): 1270 nM
- TGI (MDA-MB-468): 3090 nM
